Reference: paper PMC10350920, “Development of a 2,4-Diaminothiazole Series for the Treatment of Human African Trypanosomiasis Highlights the Importance of Static–Cidal Screening of Analogues” (Journal of Medicinal Chemistry, 2023)
Like-named read-outs stand apart in the source and are kept apart here.

Columns and labels:
[1] = test system: BSF T. b. brucei “single marker” S427; assay: Drug sensitivity assay with bloodstream-form T. brucei; format: cell-based; settings: Trypanosoma brucei; mean values; number of replicates in parentheses
Experimental: (§1) Drug sensitivity assays with BSF T. b. brucei “single marker” S427 and human MRC-5 fibroblasts were conducted as previously described.[43]

[2] = Mammalian cell counter screen (MRC-5); format: cell-based, human; settings: human, MRC-5 fibroblasts; mean values; number of replicates in parentheses
Experimental: as §1

human MRC-5 fibroblasts = assay: Mammalian cell counter screen (MRC-5); format: cell-based; settings: selectivity index (EC50 MRC5/EC50 T. brucei)
Experimental: as §1

[3] = Kinetic aqueous solubility (laser nephelometry); format: physicochemical; settings: Milli-Q water with 2.5% DMSO
Experimental: The kinetic aqueous solubility of the test compounds was measured using laser nephelometry. Compounds were subject to serial dilution from 10 to 0.5 mM in DMSO. An aliquot was then mixed with Milli-Q water to obtain an aqueous dilution plate with a final concentration range of 13–250 μM, with a final DMSO concentration of 2.5%. Triplicate aliquots were transferred to a flat-bottomed polystyrene plate which was immediately read on the NEPHELOstar (BMG Lab Technologies). The amount of laser scatter caused by insoluble particulates (relative nephelometry units, RNUs) was plotted against compound concentration using a segmental regression fit, with the point of inflection being quoted as the compound’s aqueous solubility (μM).

T. brucei RES II = assay: Drug sensitivity, compound 38-resistant clone RES II; format: cell-based, T. b. brucei; settings: for EC50: Trypanosoma brucei, read-out: EC50, RES II; for fold resistance, RES II: relative to the parental wild-type, in brackets
Experimental: (§2) Drug sensitivity assays were carried out with BSF T. b. brucei “single marker” S427 or BSF T. b. brucei, Lister 427, MiTat 1.2, clone 221a 2T1 cells,[45] cells grown at 37 °C with 5% CO2 in an HMI-9T medium[46] as previously described.[47] 2T1 cells were initially maintained with 1 μg mL^–1 puromycin and 1 μg mL^–1 phleomycin prior to transfection or 2.5 μg mL^–1 hygromycin and 1 μg mL^–1 phleomycin after transfection. Induction of overexpression was achieved by the addition of 1 μg mL^–1 tetracycline to the culture medium.
(§3) Compound-resistant cell lines were generated by subculturing a clone of T. brucei in the continuous presence of 38. Starting at sublethal concentrations, drug concentrations in two independent cultures were increased in a stepwise manner, usually 2-fold. When parasites were able to survive and grow in concentrations of drugs equivalent to more than 10 times the established EC50 value, the resulting cell lines were cloned by limiting dilution in the presence of the compound. Two clones (RES I-II) were selected for further biological study. A standard alkaline lysis protocol was used to isolate genomic DNA from compound-resistant bloodstream T. brucei parasites (∼1 × 10^8). Whole genome sequencing was performed using a DNB-seq next-generation sequencing platform (BGI, Hong Kong). Sequencing reads (150 bp) were aligned to the T. brucei TREU927 genome (v39; tritrypDB) using Bowtie2[48] and Samtools[49] software. […] Samtools and BCFtools[52] (mpileup) were used to call SNP and indels compared with the wild-type starter clone, where the overall quality score (QUAL) was >100. Artemis[50] was used to analyze chromosome and gene copy number variation, as well as visualization of SNPs.

T. brucei RES I = assay: Drug sensitivity, compound 38-resistant clone RES I; format: cell-based, T. b. brucei; settings: for EC50: Trypanosoma brucei, read-out: EC50, RES I; for fold resistance, RES I: relative to the parental wild-type, in brackets
Experimental: as §2, §3

T. brucei wild-type = assay: Drug sensitivity, wild-type parental line; format: cell-based, T. b. brucei; settings: Trypanosoma brucei; weighted mean of ≥3 independent experiments
Experimental: as §2, §3

[4] = Equilibrium dialysis, free fraction in plasma; format: in vitro ADME, mouse; settings: matrix not given
Experimental: In brief, a 96-well equilibrium dialysis apparatus was used to determine the free fraction in plasma and the brain (HT Dialysis LLC, Gales Ferry, CT). Isotonic buffer was prepared using 8.69 g of Na2HPO4, 1.9 g of KH2PO4, and 4.11 g of NaCl dissolved in 1 L of Milli-Q water, and the pH was adjusted to 7.4. Artificial CSF was prepared using 3.652 g of NaCl, 93.2 mg of KCl, 119.96 mg of MgCl2, 92.61 mg of CaCl2, and 268 mg of Na2HPO4 heptahydrate dissolved in 0.5 L of water, and the pH was adjusted to 7.4. Membranes [12–14 (plasma) or 6–9 (brain) kDA cutoff] were conditioned in deionized water for 60 min, followed by conditioning in 80:20 deionized water/ethanol for 20 min, and then rinsed in isotonic buffer (plasma) or […] (brain) before use. Female CD1 mouse plasma was defrosted and centrifuged for 10 min at 3000 rpm (Allegra X12-R, Beckman Coulter, USA). The control mouse brain was homogenized in two volumes of artificial CSF in a Covaris S2 acoustic homogenizer. Plasma or brain homogenate was spiked with the test compound (10 μg mL^–1), and 150 μL aliquots (n = 3 replicate determinations) were loaded into the 96-well equilibrium dialysis plate. Dialysis versus 150 μL of isotonic buffer (plasma) or artificial CSF (brain) was carried out for 5 h in a temperature-controlled incubator at 37 °C (Barworld Scientific Ltd, UK) using an orbital microplate shaker at 125 rpm (Barworld Scientific Ltd, UK). At the end of the incubation period, aliquots of plasma/homogenized brain or buffer were transferred to a clean 96-well plate, and the composition in each well was balanced with control fluid, such that the volume of buffer to the matrix was the same. Sample extraction was performed by the addition of 400 μL of acetonitrile containing an appropriate internal standard. Samples were allowed to mix for 1 min and then centrifuged at 3000 rpm in 96-well blocks for 10 min (Allegra X12-R, Beckman Coulter, USA). All samples were analyzed by means of UPLC/MS/MS on a Quattro Premier XE or Micro TQs mass spectrometer (Waters Corporation, USA). The unbound fraction was determined as the ratio of the peak area in the buffer to that in the matrix.

[5] = Human microsomal intrinsic clearance; format: in vitro ADME; settings: second value of mouse/human cell
[6] = Mouse liver microsomal intrinsic clearance; format: in vitro ADME
Experimental: Test compounds (0.5 μM) were incubated with female CD1 mouse liver microsomes (Xenotech LLC; 0.5 mg mL^–1 50 mM potassium phosphate buffer, pH 7.4), and the reaction started with the addition of excess NADPH (8 mg mL^–1 50 mM potassium phosphate buffer, pH 7.4). Immediately, at 0 min, and then at 3, 6, 9, 15, and 30 min, an aliquot (50 μL) of the incubation mixture was removed and mixed with acetonitrile (100 μL) to stop the reaction. The internal standard was added to all samples, the samples were centrifuged to sediment the precipitated protein, and the plates were then sealed prior to UPLC–MS/MS analysis using a Quattro Premier XE (Waters Corporation, USA). XLfit (IDBS, UK) was used to calculate the exponential decay and consequently the rate constant (k) from the ratio of the peak area of the test compound to the internal standard at each time point. The rate of intrinsic clearance (CLint) of each test compound was then calculated using the following calculation [drawing 3] where V (mL mg^–1 protein) is the incubation volume mg^–1 protein added and the microsomal protein yield is taken as 52.5 mg protein g^–1 liver. Verapamil (0.5 μM) was used as a positive control to confirm acceptable assay performance.

[7] = test system: Tb927.8.6290 overexpressing cell lines (V241F/A258V); assay: Drug sensitivity, line overexpressing Tb927.8.6290 V241F/A258V; format: cell-based, T. b. brucei; settings: for EC50: Trypanosoma brucei
Experimental: as §2
(§4) The following primers were used to PCR amplify Tb927.8.6290 from genomic DNA isolated from wild-type and 38-resistant trypanosomes 5′-[…]-3′ (PacI site in bold) and 5′-[…]-3′ (BamHI site in bold). The PCR products (1272 bp) were then cloned into the pRPa plasmid.[53] The accuracy of the plasmid constructs was confirmed by in-house Sanger sequencing and then linearized with AscI prior to transfection. The linearized plasmids were introduced into 2T1 T. b. brucei cells following removal of puromycin from the media and selected with 2.5 μg mL^–1 hygromycin and 1 μg mL^–1 phleomycin. Two independent clones were selected for further studies.

[8] = test system: Tb927.8.6290 overexpressing cell lines (WT); assay: Drug sensitivity, line overexpressing Tb927.8.6290 WT; format: cell-based, T. b. brucei; settings: for EC50: Trypanosoma brucei
Experimental: as §2, §4

[9] = test system: Tb927.8.6290 overexpressing cell lines (A258P); assay: Drug sensitivity, line overexpressing Tb927.8.6290 A258P; format: cell-based, T. b. brucei; settings: for EC50: Trypanosoma brucei
Experimental: as §2, §4

Compound | EC50 [1] [µM] | EC50 [2] [µM] | EC50 (T. brucei RES II) [µM] | fold resistance, RES II (T. brucei RES II) | EC50 (T. brucei RES I) [µM] | fold resistance, RES I (T. brucei RES I) | EC50 (T. brucei wild-type) [µM] | CLint (mouse) [6] [mL·min/g] | also measured
CC(OCC(=O)c1sc(Nc2ccc(C(F)(F)F)nc2)nc1N)C(F)(F)F (stereo not shown) [Compound 56, 1-(4-Amino-2-((6-(trifluoromethyl)pyridine-3-yl)amino)thiazol-5-yl)-2-((1,1,1-trifluoropropan-2-yl)oxy)ethanone] | 0.52 | > 50 | – | – | – | – | – | – | SI (human MRC-5 fibroblasts): 96; solubility [3]: > 0.1 mg/mL
O=C1Nc2ccc3ncsc3c2/C1=C/Nc1ccc(S(=O)(=O)Nc2ccccn2)cc1 [GW8510] | – | – | 0.11 ± 0.004 | 1 | 0.065 ± 0.004 | 1 | 0.12 ± 0.008 | – | –
Nc1nc(NC2CCCCC2)sc1C(=O)c1ccc(OC(F)F)cc1 [Compound 26, (4-Amino-2-(cyclohexylamino)thiazol-5-yl)(4-(difluoromethoxy)phenyl)methanone] | 0.06 | 22 | – | – | – | – | – | 2.9 | Fu (free fraction) [4]: low; CLint (human) [5]: 0.8 mL·min/g
Nc1nc(NC2CCCC(O)C2)sc1C(=O)c1c(F)cccc1F (stereo not shown) [Compound 16B] | 0.948 | – | – | – | – | – | – | 1.8 | fraction unbound at 5 h, 10 μg mL^–1 ([4]; CD1, mouse, plasma, pH 7.4, read-out: Fu (free fraction)): 0.22
Nc1nc(Nc2ccccc2)sc1C(=O)c1c(F)cccc1F [Compound 69, reference compound] | – | – | 0.39 ± 0.028 | 3 | 0.36 ± 0.016 | 2 | 0.15 ± 0.003 | – | EC50 ([7]; read-out: EC50, V241F/A258V +TET): 1.2 ± 0.051 µM; EC50 ([7]; read-out: EC50, V241F/A258V –TET): 0.18 ± 0.011 µM; fold shift, V241F/A258V ([7]; −TET vs +TET EC50, in brackets): 6; EC50 ([8]; read-out: EC50, WT +TET): 0.41 ± 0.019 µM; EC50 ([8]; read-out: EC50, WT –TET): 0.17 ± 0.004 µM; fold shift, WT ([8]; −TET vs +TET EC50, in brackets): 2; EC50 ([9]; read-out: EC50, A258P +TET): 1.4 ± 0.035 µM; EC50 ([9]; read-out: EC50, A258P –TET): 0.2 ± 0.009 µM; fold shift, A258P ([9]; −TET vs +TET EC50, in brackets): 7
